Laboratory results taken from patent US10730892B2, “Homoallylamines as formaldehyde-responsive triggers” (The Regents of the University of California, priority 2015, dated 2020).
Like-named read-outs stand apart in the source and are kept apart here.

Experiments:
MCF7 cells = experiment: Confocal microscopy of FAP-1 in LSD1 inhibitor-treated MCF7 cells (endogenous FA); format: cell-based, human; conditions: 10 μM FAP-1 60 min
Source text: Scale bar represents 50 μm in all images. […] Scale bar represents 50 μm in all images. […] Error bars denote SEM, n=6. *P<0.005

[1] = Fluorescence properties of compounds 3, 4, 5 and FP1 (Table 1); format: physicochemical
Source text: Such red-shifted fluorophores are desirable because of low autofluorescence, minimal phototoxicity, and negligible interference from biomolecules when employed in live cell imaging. […] In the presence of FA, a reversible condensation event yielded an iminium intermediate which can undergo a charge-promoted [3,3]-sigmatropic rearrangement-hydrolysis sequence to expel the aryl nitro group and afford a highly fluorescent indole-3-carboxaldehyde product (ΦF=0.11) (Table 1). Of note, the aldehyde is strategically positioned at C3 such that after the reaction cascade, the N1 lone pair electrons can delocalize into the π-system rather than quench fluorescence via an acceptor-excited PeT (a-PeT) pathway. In this regard, silicon rhodol 3, without the carboxaldehyde, is non-fluorescent (Table 1).

[2] = pH-Fluorescence profile of compound 4; format: physicochemical; conditions: pH 2.0 to 10.4, 25° C.
Method: FIG. 7 depicts the pH-Fluorescence profile of compound 4 (as denoted in FIG. 3). Fluorescence intensity was measured at 25° C. for the following pH values and indicated buffers: 50 mM Glycine (2.0, 2.4, 2.7, 3.1, 3.5), 50 mM sodium acetate (4.0, 4.4, 4.8, 5.2, 5.6), 50 mM MES (5.6, 6.0, 6.4, 6.8), 50 mM HEPES (6.8, 7.2, 7.4, 7.8, 8.2), 50 mM Tris (8.2, 8.6, 9.0, 9.5) and 50 mM glycine (9.5, 9.9, 10.4).

HEK293T cells [3] = conditions: FA in BSS, 37° C., 30 min
HEK293TN cells = conditions: 3 hrs
Method: Prior to imaging, cells were allowed to recover in FA-free buffer for 30 min. […] Because FA is a powerful fixative, cell viability assays were performed to determine the cytotoxicity of FA under experimental conditions. A dye exclusion protocol was employed, utilizing trypan blue to selectively stain and distinguish dead cells from those that were viable. […] To further verify that the cell populations under investigation were indeed alive, DAPI, a cell permeable nuclear and chromosome counterstain, was employed to identify intact nuclei (FIG. 16).

[4] = Method: 999 μL of a 10.01 μM solution of FAP-1 in 20 mM PBS (pH 7.4) was prepared by diluting a 10 mM dimethylsulfoxide (DMSO) stock solution of FAP-1 into pre-warmed PBS (37° C.) in a 1-cm×1-cm quartz cuvette. 1 μL of 100 mM stock solution of FA (freshly prepared by diluting commercial 37 wt. % in H2O FA solution) was added (for a final concentration of 100 μM), and the mixture was mixed by vigorous pipetting for 5 s, followed by acquisition of the t=0 spectrum. Emission spectra (λex=645 nm, λem=655-750 nm) were collected at 0, 20, 45, 60, 90, and 120 min (see FIG. 24A). Temperature was maintained at 37° C. throughout the experiment by immersing the cuvette in a heated water bath between measurements.
999 μL of a 10.01 μM solution of FAP-1 in 20 mM PBS (pH 7.4) was prepared by diluting a 10 mM DMSO stock solution of FAP-1 into pre-warmed PBS (37° C.) in a 1-cm×1-cm quartz cuvette. 1 μL of a FA stock solution (either 5 mM or 1 mM, freshly prepared by diluting commercial 37 wt. % FA solution with Milli-Q water) or 1 μL of PBS was added (for a final concentration of 5 μM, 1 μM, or 0 μM FA), and the mixture was mixed by vigorous pipetting for 5 s and placed in a 37° C. water bath. Emission spectra were obtained after 120 min. Statistical analyses for multiple comparisons were performed using one-way ANOVA with the Bonferroni correction in the statistical analysis software, R.

[5] = remark: listed apart in the source
Method: Milli-Q water was used to prepare all aqueous solutions. All spectroscopic measurements were performed in 20 mM PBS, pH 7.4. Absorption spectra were recorded using a Varian Cary 50 spectrophotometer, and fluorescence spectra were recorded using a Photon Technology International Quanta Master 4 L-format scan spectrofluorometer equipped with an LPS-220B 75-W xenon lamp and power supply, A-1010B lamp housing with integrated igniter, switchable 814 photocounting/analog photomultiplier detection unit, and MD5020 motor driver. Samples for absorption and emission measurements were contained in 1-cm×1-cm quartz cuvettes (1.4-mL volume, Starna).
Quantum yield was determined using zinc phthalocyanine (ZnPc) as a standard according to a published method (Williams et al., Analyst. 1983, 108:1067-1071). For FAP-1 and ZnPc, the absorbance spectra were measured within an absorbance range below 0.1. The quantum yield was calculated according to the equation: ϕsample=ϕstandard (Gradsample/Gradstandard)(ηsample^2/ηstandard^2); where ϕ is the quantum yield, ϕstandard=0.34 in 1% pyridine/toluene (Bishop et al., J. Photochem. Photobiol. 1995, 90:39-44), Grad is the slope of the plot of absorbance versus integrated emission intensity, and η is the refractive index of the solvent.

[6] = remark: listed apart in the source
Method: (§1) 999 μL of a 10.01 μM solution of FAP-1 (for 4-hydroxynonenal cuvette: 998.4 μL of a 10.02 μM solution of FAP-1; for glutathione cuvette: 950 μL of a 10.53 μM solution of FAP-1) in 20 mM PBS (pH 7.4) was prepared by diluting a 10 mM DMSO stock solution of FAP-1 into pre-warmed PBS (37° C.) in a 1-cm×1-cm quartz cuvette. The analyte of interest was added to the cuvette to bring the concentration of analyte to 100 μM (unless otherwise specified) and the concentration of FAP-1 to 10 μM, followed by mixing by vigorous pipetting for 5 seconds, and a t=0 spectrum was acquired. The cuvette was placed in a 37° C. water bath. Emission spectra were recorded by quickly removing the cuvette from the water bath, obtaining the spectrum, and returning the cuvette to the bath. Spectra were taken at t=0, 20, 45, 60, 90, and 120 min (see FIG. 24B).

HEK293T cells [7] = conditions: 10 μM FAP-1 30 min, FA 200 μM to 1 mM
Method: Statistical analyses for multiple comparisons were performed using one-way ANOVA with the Bonferroni correction in the statistical analysis software, R.

HEK293T cells [8] = test system: HEK293T cells
Method: FIG. 29 depicts a photostability study with FAP-1. A field of HEK293T cells loaded with 10 μM FAP-1 in BSS at 37° C. was irradiated using 50% laser power (dashed line) or 6% laser power (solid line) with a pinhole of 1 airy unit for 100 scans. Emission was normalized to the first scan for each field. Error bars represent standard deviation, n=5.

[9] = remark: listed apart in the source
Method: A modified version of the shake method was used to determine the partition coefficient or log Doct/wat value for FAP-1 (Rothbard et al., J. Am. Chem. Soc. 2004, 126:9506-9507). Briefly, 1-octanol-saturated PBS (248 μL), PBS-saturated 1-octanol (248 μL), and 1 mM solution of FAP-1 in DMSO (5 μL) were added to a 0.6-mL microcentrifuge tube. The dye was partitioned between the layers via vortexing for 30 s. The microcentrifuge tube was centrifuged on a bench-top minifuge at 4 k rpm for 4 minutes to separate the layers. A portion of the 1-octanol layer (200 μL) was transferred to a 96-well plate, and the fluorescence emission from 665-700 nm was measured (excitation at 645 nm) using a Synergy Mx multimode microplate reader (BioTek Instruments, Inc.) equipped with fluorescence module. The concentration of dye in the 1-octanol layer was determined by comparison with a standard curve constructed from six data points.

[10] = remark: listed apart in the source
Method: as §1
1 μL of 100 mM stock solution of methylglyoxal in Milli-Q water (freshly prepared by diluting 7.7 μL of neat methylglyoxal to 500 μL with Milli-Q water) was added to 999 μL of a 10.01 μM solution of FAP-1 in PBS.

[11] = in 1% pyridine/toluene; cited from earlier work

For `N[C@@H]1C[C@H]1c1ccccc1` (racemic) [TCP, tranylcypromine], the “decrease in FAP-1 fluorescence signal compared to control cells” value (MCF7 cells; MCF7, 20 μM inhibitor for 20 h) was “ca. 20%”.

Work on `Cc1cc2c(ccn2C)cc1C1=C2C=CC(=O)C=C2[Si](C)(C)c2c1cc1c3c2CCCN3CCC1` [Compound 3, 9-(1,6-dimethyl-1H-indol-5-yl)-14,14-dimethyl-2,3,5,6,7,14-hexahydro-1H,12H-benzo[5,6]silino[2,3-f]pyrido[3,2,1-ij]quinolin-12-one] yielded a ε [1] of 86000 M⁻¹ cm⁻¹, a λabs [1] of 633 nm and a λem [1] of 649 nm. The “fluorescence (in words)” value ([1]; without the carboxaldehyde) was “non-fluorescent”.

In the case of `Cc1cc2c(cc1C1=C3C=CC(=O)C=C3[Si](C)(C)c3c1cc1c4c3CCCN4CCC1)c(C=O)cn2C` [Compound 4, 5-(14,14-dimethyl-12-oxo-2,3,6,7,12,14-hexahydro-1H,5H-benzo [5,6]silino [2,3-f]pyrido[3,2,1-ij]quinolin-9-yl)-1,6-dimethyl-1H-indole-3-carbaldehyde], the “Φ (quantum efficiency, ΦF)” value [1] is reported as 0.13, the ε [1] is reported as 106000 M⁻¹ cm⁻¹ and the λabs [1] is reported as 633 nm. For the same compound, the λem [1] was 649 nm, the “Φ (quantum efficiency, ΦF)” value ([1]; listed as indole-3-carboxaldehyde product) was 0.11 and the pH-fluorescence profile [2] was “high fluorescence intensity was maintained under physiological conditions”.

For `C=CCC(N)c1cn(C)c2cc(C)c(C3=C4C=CC(=O)C=C4[Si](C)(C)c4c3cc3c5c4CCCN5CCC3)cc12` (stereo not drawn) [Compound 5, 9-(3-(1-aminobut-3-en-1-yl)-1,6-dimethyl-1H-indol-5-yl)-14,14-dimethyl-2,3,5,6,7,14-hexahydro-1H,12H-benzo[5,6]silino[2,3-f]pyrido[3,2,1-ij]quinolin-12-one], the “Φ (quantum efficiency, ΦF)” value [1] was 0.02, the ε [1] was 100000 M⁻¹ cm⁻¹ and the λabs [1] was 633 nm. The λem [1] was 649 nm.

In the case of `C=O` [FA, Formaldehyde], the “cell viability (propidium iodide assay)” value (HEK293T cells [3]) is reported as “no difference between FA-treated and untreated cells”, the “loss in viability (trypan blue)” value (NS1 cells; NS1, 2.5 mM FA, 3 hrs) is reported as “ca. 12%” and the “cell death (trypan blue)” value (NS1 cells; NS1, 5 mM FA) is reported as “considerable cell death”. The “dead cells (trypan blue)” value (HEK293TN cells; 1 mM FA) was 5% and the “cells no longer viable (trypan blue)” value (HEK293TN cells; 5 mM FA) was ~35%.

With `C=CCC1NC2(c3ccc(C(=O)O)cc31)c1ccc(N(C)C)cc1[Si](C)(C)c1cc(N(C)C)ccc12` (stereo not drawn) [FAP-1] the “turn-on response at saturation” value ([4]; 10 μM FAP-1, 100 μM FA, extended incubation times) was “ca. 45 fold”, the “fold fluorescence turn-on response” value ([4]; 10 μM FAP-1, 100 μM FA, pH 7.4, 37° C., within 1 h) was “ca. 8 fold” and the “in vitro detection limit for FA” value ([4]; 10 μM FAP-1, 2-hour cutoff) was 5 µM. The ε650 ([5]; 20 mM PBS, pH 7.4) was 190 M^1 cm^−1, the “φfl (quantum yield)” value ([5]; 20 mM PBS, pH 7.4, ZnPc as standard) was 0.36 and the λem ([5]; turn-on response to FA) was 662 nm. The λmax ([5]; turn-on response to FA) was 645 nm, the “selectivity for FA over competing RCS and carbonyl-containing molecules” value ([6]; 10 μM FAP-1, 100 μM analyte (glucose 1 mM), 37° C.) was “good selectivity” and the change in fluorescence ([6]; 100 μM H2O2) was “no change in fluorescence”. The change in fluorescence ([6]; 5 mM glutathione) was “no change in fluorescence”, the “fluorescence turn-on in FA-treated cells over control cells” value (HEK293T cells [7]) was “significant and dose-dependent fluorescence turn-on” and the photostability (HEK293T cells [8]; 50% laser power) was “slight photobleaching”. For the same compound, the photostability (HEK293T cells [8]; 100 scans with 6% laser power) was “consistent fluorescence intensity”, the “log Doct/wat” value ([9]; 1-octanol / PBS, mean±standard deviation, triplicate) was 0.53±0.01 and the “solubility in aqueous solution” value ([9]; aqueous solution buffered to pH 7.4) was “good solubility”. For the same compound, the fluorescence response ([10]; 10 μM methylglyoxal) was “not responsive” and the fluorescence response ([10]; 100 μM methylglyoxal (super-physiological)) was “small response”.

With `c1ccc([C@@H]2C[C@H]2NC2CCNCC2)cc1` [GSK-LSD1] the “effect on FAP-1 fluorescence” value (MCF7 cells; MCF7, 1 μM inhibitor for 20 h) was “attenuated FAP-1 fluorescence”.

In the case of `[Zn+2].c1ccc2c(c1)-c1nc-2nc2[n-]c(nc3nc([n-]c4nc(n1)-c1ccccc1-4)-c1ccccc1-3)c1ccccc21` [ZnPc, zinc phthalocyanine], the “ϕstandard (quantum yield)” value [11] is listed as 0.34.
